“Also recorded” adds a separate entry of the source. Read-outs that look alike come from different tables or passages of the source. Where a SMILES comes first, the peptide text is derived from it. Bridges are numbered along the chain shown (N, C = ends). [ ]: non-standard residue; d: D form. d2Nal = N[C@H](Cc1ccc2ccccc2c1)C(=O)O; Nle = CCCC[C@H](N)C(=O)O; Ahx = NCCCCCC(=O)O; βAla = NCCC(=O)O
Legend:
mu opioid receptor (MOR) = target: T1, mu opioid receptor (MOR) (Rattus norvegicus, UniProt P33535); assay: Competitive radioligand binding, [3H]DAMGO, rat brain homogenate; conditions: for IC50: [3H]DAMGO, rat brain homogenate, three determinations in duplicate, read-out: Affinity MOR IC50 ± SD; for Selectivity MOR/DOR: calculated as ratio of IC50 values
T1 construct: The determinations for opioid receptors were performed in rat brain homogenates; from tissue; host or cells: rat brain homogenate (membrane fraction)
T1 sequence (P33535 whole entry): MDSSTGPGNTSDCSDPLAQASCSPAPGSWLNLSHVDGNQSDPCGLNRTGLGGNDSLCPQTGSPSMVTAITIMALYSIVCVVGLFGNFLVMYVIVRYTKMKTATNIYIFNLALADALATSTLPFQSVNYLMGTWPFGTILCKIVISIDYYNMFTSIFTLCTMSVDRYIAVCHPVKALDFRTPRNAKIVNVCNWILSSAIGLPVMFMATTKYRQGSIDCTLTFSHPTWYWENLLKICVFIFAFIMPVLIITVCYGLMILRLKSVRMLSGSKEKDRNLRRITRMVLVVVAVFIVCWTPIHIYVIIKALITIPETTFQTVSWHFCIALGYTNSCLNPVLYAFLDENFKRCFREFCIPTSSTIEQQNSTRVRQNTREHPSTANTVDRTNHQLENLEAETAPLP
Procedure: (§1) The determinations for opioid receptors were performed in rat brain homogenates by competitive displacement using selective radioligands, namely [^3H]DAMGO (a radioligand specific for MOR) and [^3H][Ile^5,6]DELT II (a radioligand specific for DOR). The measurement for melanocortin receptor MC4 was performed with the use of HEK293 MC4R cells and [^125I]-NDP-α-MSH radioligand.
(§2) The binding affinity of peptidomimetics 1–9 and reference compoundsTyr-D-Ala-Gly-Phe-NH2 for MOR and DOR was determined in competitive radioligand binding assays according to the method previously described. The specific radioligands were [^3H]DAMGO (DAMGO (a specific MOR ligand) and [^3H][Ile^5,6]DELT II]) (a specific DOR ligand). Membrane fractions of rat brain homogenate were incubated at 25 °C for 60 min in the presence of radioligands (0.5 nM) specific for each receptor and the increasing concentrations of the tested compounds. For measuring non-specific binding, 10 μM naloxone was used as the competitor for opioid receptors. The reactions were carried out in assay buffer containing Tris-HCl (pH 7.4) with an addition of bovine serum albumin (BSA) and protease inhibitors (bacitracin, bestatin, captopril). After the incubation, the binding reactions were terminated by rapid filtration with M-24 Cell Harvester (Brandel/USA) through GF/B Whatman glass fiber strips (pre-soaked with 0.5% PEI in order to minimize non-specific binding). Radioactivity retained on the filters was measured in MicroBeta LS, Trilux scintillation counter (PerkinElmer, USA). The experiments were repeated at least three times in duplicate. The IC50 value for each compound was determined using GraphPad Prism.

[1] = target: T2, delta opioid receptor (DOR) (Rattus norvegicus, UniProt P33533); assay: Competitive radioligand binding, [3H][Ile5,6]DELT II, rat brain homogenate; conditions: three determinations in duplicate, read-out: Affinity DOR IC50 ± SD
T2 construct: The determinations for opioid receptors were performed in rat brain homogenates; from tissue; host or cells: rat brain homogenate (membrane fraction)
T2 sequence (P33533 whole entry): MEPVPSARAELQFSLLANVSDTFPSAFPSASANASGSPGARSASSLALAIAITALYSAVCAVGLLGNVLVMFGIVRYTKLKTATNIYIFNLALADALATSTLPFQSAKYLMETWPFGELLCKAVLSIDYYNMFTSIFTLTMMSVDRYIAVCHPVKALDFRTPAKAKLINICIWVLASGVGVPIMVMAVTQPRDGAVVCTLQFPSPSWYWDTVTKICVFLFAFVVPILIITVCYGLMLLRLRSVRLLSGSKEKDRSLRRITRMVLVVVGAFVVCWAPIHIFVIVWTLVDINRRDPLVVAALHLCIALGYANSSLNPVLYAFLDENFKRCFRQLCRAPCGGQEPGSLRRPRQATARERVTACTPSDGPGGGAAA
Procedure: as §1, §2

[2] = target: melanocortin-4 receptor (MC4R) (Homo sapiens, UniProt P32245); assay: Radioligand competitive binding, [125I]-NDP-α-MSH, HEK293 MC4R cells; conditions: for IC50: [125I]-NDP-α-MSH, HEK293 MC4R cells, average of two assays in duplicates, read-out: Affinity MC4R IC50 ± SD; for Selectivity MC4R/DOR: calculated as ratio of IC50 values
melanocortin-4 receptor (MC4R), sequence (P32245 whole entry): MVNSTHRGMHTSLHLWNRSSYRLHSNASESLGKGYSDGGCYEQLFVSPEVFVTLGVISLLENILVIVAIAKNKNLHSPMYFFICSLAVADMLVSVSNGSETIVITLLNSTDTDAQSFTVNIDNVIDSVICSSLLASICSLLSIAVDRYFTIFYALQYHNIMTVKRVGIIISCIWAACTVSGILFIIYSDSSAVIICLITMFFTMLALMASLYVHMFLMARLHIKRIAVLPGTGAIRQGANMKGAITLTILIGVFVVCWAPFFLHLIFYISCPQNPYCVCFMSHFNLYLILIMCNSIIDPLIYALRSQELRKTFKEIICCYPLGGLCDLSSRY
Procedure: as §1
HEK293 MC4R were cultured in Earle’s Minimum Essential Medium (EMEM) supplemented with 10% heat inactivated fetal bovine serum (FBS). Cultures were grown under the humidified atmosphere of 5% CO2 in the air at 37 °C, up to 80% settlement of the bottle surface.
HEK293 MC4R cells were seeded around 10^5 cell/well in a 24-well plates two days before the experiment. Just before experiment, cells were washed twice with 0.5 mL of binding buffer (EMEM supplemented with 25 mM HEPES buffer, 0.2% bovine serum albumin, 1 mM 1,10-phenanthroline, 0.5 mg/L leupeptin and 200 mg/L bacitracin). […] The competition between ligands was ended by gentle withdrawal of medium solution, followed by cell washing with 2 × 0.5 mL of cold binding buffer, while the attached cells were lysed using 2 × 0.5 mL of 1 M NaOH. The radioactivity of collected solutions were measured on WIZARD^2 2480 Automatic Gamma Counter (PerkinElmer, Boston, MA, USA) in measurements with decay correlation protocol. All binding parameters were determined using GraphPad Prism Software (GraphPad Software Inc., San Diego, CA, USA). The competition assay determination was based on the normalized dose response in function of logarithm of inhibitor concentration (with variable slope) equation. All the EC50 values were calculated as an average of two separate competition assays performed in duplicates.

[3] = Experimental lipophilicity (P, log P); type: physicochemical
From the text: We also studied experimentally the lipophilicity of the compounds 1–4. The obtained logP values vary only moderately (in the range −2.30 to −2.92, Table S2) and cannot account for the large differences in the antinociceptive activity. It seems then that the lipophilicity is not a factor responsible for the in vivo activity differences.

naive mice (acute pain) = assay: Tail-flick test in naive mice (acute pain model); type: in vivo; conditions: for ED50 (CL) Naive Mice (Acute Pain) Tail-Flick: i.t. administration, 95% confidence limits; for analgesic effect in naive mice (acute pain), in words / ED50 Naive Mice (Acute Pain) Tail-Flick, class symbol: i.t.
Procedure: (§3) The antinociceptive properties of the peptidomimetics 1–9 were assessed in two types of pain models. The first one included naive mice (acute pain), and the second one included mice exposed to chronic constriction injury (CCI, neuropathic pain model). In the latter of the models, two types of stimuli (mechanical pressure and low temperature) were considered. […] In naive mice, the tail-flick test was used to evaluate the analgesic effect (acute pain model). In CCI-exposed mice, hypersensitivity to mechanical and thermal stimuli was measured by von Frey and cold-plate tests, respectively.
The tail-flick test was performed with use of Tail-Flick Analgesic Meter (Ugo Basile, Comerio, Italy) to evaluate the pain threshold to a thermal stimulus. During the procedure, an animal was placed on the apparatus surface and gently held by the experimenter. A beam of light was focused on a dorsal tail surface, approximately at 1 cm from the tail tip. When the animal flicked its tail, the timer stopped, and the recorded time (latency) was measured. The cut-off time to protect tissue damage was 9 s.
(§4) The behavioral data are presented as the percentage of the maximal possible antinociceptive effect (% MPE ± SEM), which was calculated according to the following equation: % MPE = [(TL − BL)/(CUT-OFF − BL)] × 100%, where BL is the baseline latency, and TL is the latency obtained after drug injection. The results of the experiments were statistically evaluated using one-way analysis of variance (ANOVA). The differences between the treatment groups throughout the study were further analyzed with Bonferroni post hoc tests. The Litchefield and Wilcoxon method was used to calculate the ED50 value (a dose necessary to produce a 50% response) with 95% confidence limits on quantal data.

[4] = system: mice subjected to CCI (neuropathic pain); assay: Von Frey test in CCI-exposed mice (neuropathic pain, allodynia); type: in vivo; conditions: for ED50 (CL) Mice Subjected to CCI (Neuropathic Pain) Von Frey (Allodynia): 7–14 days after CCI, i.t. administration, 95% confidence limits
Procedure: as §3
(§5) The surgical procedure was performed according to Bennett and Xie. Under isoflurane anesthesia, an incision was made below the mouse’s right hipbone, and the sciatic nerve was exposed. Three ligatures with 4/0 silk thread were made around the nerve distal to the sciatic notch with 1 mm spacing, until a brief twitch in the respective hind limb was observed. After 7 days of recovery, mice were tested to assess the development of neuropathic pain behavior. […] Main experiments were conducted on days 7–14 after CCI surgical procedure.
Mechanical sensitivity to non-noxious stimuli was measured by applying a set of calibrated nylon monofilaments in increasing value (0.6–6 g; Stoelting, Wood Dale, IL, USA) on a tested hind paw plantar surface, until a behavioral response was observed. Response considered as pain behavior included rapid paw withdrawal, shaking, and licking. In the von Frey test, results are expressed as pressure (g) applied with a calibrated plastic filament to the midplantar surface of the mouse’s injured hind paw (cut-off: 6 g), which elicited a foot withdrawal response.
as §4

[5] = system: mice subjected to CCI (neuropathic pain); assay: Cold plate test in CCI-exposed mice (neuropathic pain, hyperalgesia); type: in vivo; conditions: 7–14 days after CCI, i.t. administration, 95% confidence limits
Procedure: as §3, §5
Sensitivity to noxious thermal stimuli was assessed with usage of Cold/Hot Plate Analgesia Meter, (Ugo Basile, Comerio, Italy). The temperature of the plate was kept at 2 °C, and the cut-off latency was 30 s. The mice were placed on the cold plate, and the time until the hind paw was lifted was recorded, which was considered as a reaction to noxious cold stimulus.
as §4

Compound	IC50 (mu opioid receptor (MOR)) [nM]	Selectivity MOR/DOR (mu opioid receptor (MOR))	IC50 [1] [nM]	IC50 [2] [nM]	Selectivity MC4R/DOR [2]	logP ([3]; read-out: Lipophilicity Log P)	logP ([3]; read-out: Lipophilicity P)	ED50 (CL) Naive Mice (Acute Pain) Tail-Flick (naive mice (acute pain))	ED50 (CL) Mice Subjected to CCI (Neuropathic Pain) Von Frey (Allodynia) [4]	ED50 (CL) Mice Subjected to CCI (Neuropathic Pain) Cold Plate (Hyperalgesia) [5]	analgesic effect in naive mice (acute pain), in words (naive mice (acute pain))	analgesic effect in CCI-exposed mice, in words ([4]; CCI mice, von Frey and cold plate tests, i.t.)	ED50 Naive Mice (Acute Pain) Tail-Flick, class symbol (naive mice (acute pain))
CCCC[C@H](NC(=O)[C@@H](C)NC(=O)[C@H](Cc1ccccc1)NC(=O)CNC(=O)[C@@H](C)NC(=O)[C@@H](N)Cc1ccc(O)cc1)C(=O)N[C@H]1CC(=O)NCCCC[C@@H](C(N)=O)NC(=O)[C@H](Cc2c[nH]c3ccccc23)NC(=O)[C@H](CCCNC(=N)N)NC(=O)[C@@H](Cc2ccc3ccccc3c2)NC(=O)[C@H](Cc2c[nH]cn2)NC1=O [Compound 1, ENK-D-Ala-SHU] (H-Y[dA]GF[dA][Nle]DH[d2Nal]RWK-NH2; lactam 7-12)	69.6 ± 18.7	0.2	14.5 ± 1.91	0.07 ± 0.01	207	-2.3 ± 0.02	-2.3	–	–	–	–	–	–
CCCC[C@H](NC(=O)CCNC(=O)[C@H](Cc1ccccc1)NC(=O)CNC(=O)[C@@H](C)NC(=O)[C@@H](N)Cc1ccc(O)cc1)C(=O)N[C@H]1CC(=O)NCCCC[C@@H](C(N)=O)NC(=O)[C@H](Cc2c[nH]c3ccccc23)NC(=O)[C@H](CCCNC(=N)N)NC(=O)[C@@H](Cc2ccc3ccccc3c2)NC(=O)[C@H](Cc2c[nH]cn2)NC1=O [Compound 2, ENK-β-Ala-SHU] (H-Y[dA]GF[βAla][Nle]DH[d2Nal]RWK-NH2; lactam 7-12)	104 ± 29.1	0.2	22.8 ± 7.49	0.12 ± 0.01	190	-2.33 ± 0.02	-2.33	58.8 (27–128) nmol	0.04 (0.03–0.68) nmol	142 (31–654) nmol	–	–	–
CCCC[C@H](NC(=O)CCCCCNC(=O)[C@H](Cc1ccccc1)NC(=O)CNC(=O)[C@@H](C)NC(=O)[C@@H](N)Cc1ccc(O)cc1)C(=O)N[C@H]1CC(=O)NCCCC[C@@H](C(N)=O)NC(=O)[C@H](Cc2c[nH]c3ccccc23)NC(=O)[C@H](CCCNC(=N)N)NC(=O)[C@@H](Cc2ccc3ccccc3c2)NC(=O)[C@H](Cc2c[nH]cn2)NC1=O [Compound 3, ENK-Ahx-SHU] (H-Y[dA]GF[Ahx][Nle]DH[d2Nal]RWK-NH2; lactam 7-12)	64 ± 34.6	0.7	45.4 ± 32.3	1.83 ± 0.81	25	-2.43 ± 0.01	-2.43	–	0.0002 (0.00005–0.001) nmol	–	–	–	–
CCCC[C@H](NC(=O)CCCCCNC(=O)CCCCCNC(=O)[C@H](Cc1ccccc1)NC(=O)CNC(=O)[C@@H](C)NC(=O)[C@@H](N)Cc1ccc(O)cc1)C(=O)N[C@H]1CC(=O)NCCCC[C@@H](C(N)=O)NC(=O)[C@H](Cc2c[nH]c3ccccc23)NC(=O)[C@H](CCCNC(=N)N)NC(=O)[C@@H](Cc2ccc3ccccc3c2)NC(=O)[C@H](Cc2c[nH]cn2)NC1=O [Compound 4, ENK-(Ahx)2-SHU] (H-Y[dA]GF[Ahx][Ahx][Nle]DH[d2Nal]RWK-NH2; lactam 8-13)	5.47 ± 1.38	4.1	22.3 ± 12.7	0.5 ± 0.16	45	-2.92 ± 0.02	-2.92	–	0.01 (0.00002–7.8) nmol	0.1 (0.004–3.4) nmol	–	–	–
ENK-4AMB-SHU [Compound 5]	–	–	–	–	–	–	–	–	0.02 (0.005–0.5) nmol	0.16 (0.1–0.2) nmol	lack of analgesic effect	–	–
ENK-4APhAc-SHU [Compound 6]	–	–	–	–	–	–	–	42 (21–85) nmol	0.02 (0.0002–1.03) nmol	0.02 (0.0005–1.2) nmol	some analgesic activity	–	–
ENK-(Pro-Gly)2-SHU [Compound 8]	–	–	–	–	–	–	–	5 (0.4–60.3) nmol	–	–	–	any analgesic effect was not observed; also recorded: very little if any activity	–
ENK-Pro-Gly-SHU [Compound 7]	–	–	–	–	–	–	–	–	0.4 (0.3–0.6) nmol	0.16 (0.07–0.34) nmol	impossible to calculate ED50 due to weak analgesic effect and poor dose dependency	–	# (weak analgesic effects, poor dose dependency, ED50 cannot be calculated)
[Dmt^1]ENK-Ahx-SHU [Compound 9]	–	–	–	–	–	–	–	–	0.003 (0.000003–3.45) nmol	0.009 (0.005–0.01) nmol	impossible to calculate ED50 due to weak analgesic effect and poor dose dependency	–	# (weak analgesic effects, poor dose dependency, ED50 cannot be calculated)

— publication PMC8775902, “Bifunctional Opioid/Melanocortin Peptidomimetics for Use in Neuropathic Pain: Variation in the Type and Length of the Linker Connecting the Two Pharmacophores” (International Journal of Molecular Sciences, 2022)
